Each block holds one molecule with its values, some of them ahead of it.
Assays:
[1] = tested on: Salmonella typhimurium TA100; format: cell-based
[2] = tested on: Salmonella typhimurium TA1537; assay: Salmonella/microsome reversion assay (Ames test), TA1537; format: cell-based
[3] = tested on: Salmonella typhimurium TA1535; format: cell-based
[4] = tested on: Salmonella typhimurium TA102; settings: Positive Control: 2-aminoanthrene 5 µg /plate
Procedure: Five strains of Salmonella typhimurium, TA98, TA102, TA100, TA1537, and TA1535, were obtained from Moltox (Boone, NC, USA). Mutagenicity was evaluated by the incorporation method in the presence or absence of S9 metabolic activation. A volume of 100 µL of each test bacterial culture (10^9 cells/mL), 2 mL soft agar (0.6% agar, 0.5% NaCl, 5 mM histidine, and […], pH 7.4, 40–50 °C), 0.5 mL S9 mixture (if necessary), and AzP were mixed well in a test tube. […] The revertant colonies were counted, and a positive mutagenic response was identified when (i) the number of revertants was at least double the spontaneous yield; (ii) a statistical significance (p ≤ 0.05) was found; and (iii) a reproducible positive dose response was present.

[5] = tested on: Salmonella typhimurium TA98; assay: Salmonella/microsome reversion assay (Ames test), TA98; format: cell-based; settings: Positive Control: 4-Nitro-o-phenylenediamine 2.5 µg / plate
[6] = tested on: male ICR mice; assay: Micronucleus test; settings: Cyclophosphamide 200 mg/kg
Procedure: Male ICR mice (n = 5) were administered AzP orally by gavage, at doses of 5, 50, and 500 mg/kg body weight. […] At 24, 48, and 72 h after dosing, 2-μL blood samples were collected from the tail vein onto a slide stained with acridine orange (40 μg/mL). The ratio (%) of polychromatic erythrocytes (PCEs) to total erythrocytes was determined using fluorescence microscopy. In addition, the frequency of micronucleated polychromatic erythrocytes (MNPCEs; ‰) was counted to a total of 1000 erythrocytes or PCEs per animal.

[7] = tested on: Chinese Hamster Ovary cells (CHO-K1); assay: Chromosome aberration assay; format: cell-based; settings: Mitomycin C 1µg/mL
Procedure: Chinese hamster ovary epithelial cells (CHO-K1, American Type Culture Collection, Manassas, VA, USA) were cultured in 6-cm dishes at a density of 2 × 10^5 cells/mL for chromosomal abnormality analysis. […] Colemid (0.1 μg/mL) was administered 3 h before trypsinization, followed by treatment with 0.9% sodium citrate at 37 °C and Carnoy’s solution (methanol:acetic acid, 3:1). The cells were stained with 3% Giemsa solution in 0.07 M phosphate buffer (pH 6.8) on glass slides. […] The data were expressed as the total mean number of chromosomal aberrations per treatment ± standard deviation (SD) from three independent experiments.

[8] = tested on: C57BL/6 mice; settings: mouse, in vivo, ip, 11 mg/kg
[9] = tested on: IEC-6 cells; assay: LPS-induced MAPK/Akt phosphorylation in IEC-6 cells (Western blot); format: cell-based, Rat; settings: LPS 500 ng/mL, 10 min
Procedure: Figure 6 Western blotting of IEC-6 cells treated with LPS and/or AzP. (A) IEC-6 cells (1 × 10^6 cells/mL) were dispensed on 6 cm dishes and (A) treated with LPS (500 ng/mL) for 10, 20, 30, 60, and 90 min. Data expressed as means ± SD from 3 independent experiments. * p < 0.05 as compared with the resting. (B) Treatment with LPS (500 ng/mL) for 10 min as indicated. Cells were treated with the indicated concentrations of AzP (5, 10, and 20 μM) or vehicle for 30 min before treatment with LPS. Cell lysates were collected for Western blot targeting p-ERK phosphorylation (Thr202/Tyr204, B), MEK phosphorylation ([…], C), and Akt phosphorylation (Ser473, D). Data expressed as means ± SD from 3 independent experiments. ### p < 0.001 as compared with the resting, * p < 0.05, ** p < 0.01 and *** p < 0.001 as compared with the vehicle.
IEC-6 cells were incubated in different AzP concentrations with/without LPS stimulation for 24 h. The homogenate from cells or tissues was then centrifuged at 14,000× g for 10 min at 4 °C and the supernatant was collected. Protein separation was performed using 10% reducing SDS-PAGE, electrotransferred onto polyvinylidene difluoride (PVDF), and immunoblotted with antibodies against inflammatory proteins as well as β-actin as control. Densitometry was performed using BioLight software V2000.01 (Uhldingen-Mühlhofen, Germany). The optical density of specific protein was normalized to an internal control and expressed as a ratio to control.

[10] = Positive Control: 2-aminoanthrene 5 µg /plate
[11] = 3 hours without S9 metabolic activation
[12] = 24 hours without S9 metabolic activation
[13] = Positive Control: Sodium Azide 5 µg / plate

Molecule: Nc1ccc2cc3ccccc3cc2c1 [2-aminoanthrene, reference compound]
Revertant colonies per plate (+S9) TA100 [1, 10]: 1514.7±6.9
Revertant colonies per plate (+S9) TA1537 [2, 10]: 1282.8±109
Revertant colonies per plate (+S9) TA1535 [3, 10]: 1182.9±81.6
Revertant colonies per plate (+S9) TA102 [4]: 1409.8±78.2

Molecule: Nc1ccc([N+](=O)[O-])cc1N [4-Nitro-o-phenylenediamine, reference compound]
Revertant colonies per plate (-S9) TA98 [5]: 1549.3±37.6

Molecule: Nc1c2ccccc2nc2ccccc12 [9-Aminoacridine, reference compound]
Revertant colonies per plate (-S9) TA1537 ([2]; Positive Control: 9-Aminoacridine 50 µg /plate): 1671.8±184

Molecule: O=P1(N(CCCl)CCCl)NCCCO1 (stereo not drawn) [Cyclophosphamide, reference compound]
Reticuloctes(%) ([6]; Day 1): 1.60±0.12 %
Reticuloctes(%) ([6]; Day 2): 0.93±0.07 %
Reticuloctes(%) ([6]; Day 3): 1.07±0.16 %

Aberrant cell (%) With gap [7, 11]: 7.67±1.15 %
Number of cells with structural aberrations (%) B: chromosome break [7, 11]: 0.00±0.00%
Number of cells with structural aberrations (%) G: chromosome gap [7, 11]: 0.00±0.00%
Number of cells with structural aberrations (%) e: exchange [7, 11]: 2.00±1.00 %
Aberrant cell (%) With gap [7, 12]: 10.00±1.73 %
Number of cells with structural aberrations (%) B: chromosome break [7, 12]: 0.00±0.00%
Number of cells with structural aberrations (%) G: chromosome gap [7, 12]: 0.00±0.00%
Number of cells with structural aberrations (%) e: exchange [7, 12]: 4.33±2.52 %
Molecule: CO[C@@]12[C@H](COC(N)=O)C3=C(C(=O)C(C)=C(N)C3=O)N1C[C@@H]1N[C@@H]12 [Mitomycin C, reference compound]

Molecule: [N-]=[N+]=[N-].[Na+] [Sodium Azide, reference compound]
Revertant colonies per plate (-S9) TA100 [1, 13]: 1433.6±94.4
Revertant colonies per plate (-S9) TA1535 [3, 13]: 1506.7±62.3

Molecule: N.N.[Cl][Pt][Cl] [cisplatin, reference compound]
Relative mean body weight (day 0 = 100%) [8]: 76.0 ± 4.7%

Molecule: lipopolysaccharide [LPS, reference compound]
ERK phosphorylation compared to the control [9]: 1.8 ± 0.3 fold
